The values below come from patent US10239849B2 (Merck Sharp & Dohme Corp., priority 2015, dated 2019).

The target of experiment [1] is T1, glutathione-S-transferase (GST) tagged LXRalpha LBD (ligand binding domain) (Homo sapiens, UniProt Q13133).
T1 construct: purchased Invitrogen pv4655
T1 sequence (Q13133 209-447 limits assumed): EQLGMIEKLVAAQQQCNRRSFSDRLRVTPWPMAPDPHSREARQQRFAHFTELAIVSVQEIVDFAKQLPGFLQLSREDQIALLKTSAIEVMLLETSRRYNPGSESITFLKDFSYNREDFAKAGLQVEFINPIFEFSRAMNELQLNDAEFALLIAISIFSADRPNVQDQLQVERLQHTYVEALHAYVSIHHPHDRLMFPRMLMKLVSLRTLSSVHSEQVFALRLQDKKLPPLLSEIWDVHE
Briefly: LanthaScreen TR-FRET Liver X Receptor Coactivator Assay, LXR alpha-LBD. The format is biochemical. The settings on record: for Emax: efficacy in relation to reference dual agonist T1317, read-out: LXR alpha activity at max dose (%) (Emax); for EC50: potency (Inflection Point) of co-activator recruitment, TR-FRET, read-out: LXR alpha IP. The procedure, abridged: (§1)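 Coactivator recruitment format: receptor LBD exposed to compounds, detection via Tb-antibody/fluorescein-peptide pair, room-temperature incubation, TR-FRET signal on a filter instrument.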
In general terms: Time-resolved FRET reads energy transfer from a long-lived donor to a nearby acceptor.

Experiment [2] concerns the target T2, glutathione-S-transferase (GST) tagged LXRbeta LBD (ligand binding domain) (Homo sapiens, UniProt P55055).
T2 construct: purchased Invitrogen pv4658.pps
T2 sequence (P55055 222-460 limits assumed): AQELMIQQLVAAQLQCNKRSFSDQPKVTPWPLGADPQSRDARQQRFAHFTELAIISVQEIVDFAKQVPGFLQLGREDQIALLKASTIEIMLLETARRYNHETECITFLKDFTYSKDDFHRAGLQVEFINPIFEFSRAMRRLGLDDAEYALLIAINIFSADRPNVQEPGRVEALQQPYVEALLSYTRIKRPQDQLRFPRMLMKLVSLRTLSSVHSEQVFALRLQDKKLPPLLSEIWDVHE
Briefly: LanthaScreen TR-FRET Liver X Receptor Coactivator Assay, LXR beta-LBD. It counts as biochemical. The following applies: for Emax: efficacy in relation to reference dual agonist T1317, read-out: LXR beta activity at max dose (%) (Emax); for EC50: potency (Inflection Point) of co-activator recruitment, TR-FRET, read-out: LXR beta IP. The procedure, abridged:
as §1

As a reminder, the Emax is the greatest response seen or fitted, relative to the assay's reference.

`CCCC(O)(C(=O)N1CCN(c2ncc(-c3ccc(C(=O)N(C)C)c(Cl)c3)cc2C#N)CC1)C(F)(F)C(F)(F)F` (centres unmarked) [Example 2-36, 2-chloro-4-(5-cyano-6-{4-[2-hydroxy-2-(pentafluoroethyl)pentanoyl]piperazin-1-yl}pyridin-3-yl)-N,N-dimethylbenzamide]: in experiment [1], the Emax came out at 36% and the EC50 came to 5130 nM. In addition, in experiment [2], the maximal response (Emax) was determined as 81% and the EC50 was 205 nM.

As for `CN(C)C(=O)c1ccc(-c2cnc(N3CCN(C(=O)C(O)(C(F)(F)F)C(F)(F)F)CC3)c(C#N)c2)cc1Cl` [Example 2-30, 2-chloro-4-(5-cyano-6-{4-[3,3,3-trifluoro-2-hydroxy-2-(trifluoromethyl)propanoyl]piperazin-1-yl}pyridin-3-yl)-N,N-dimethylbenzamide], in experiment [1], the Emax stood at 66% and the EC50 came to 5290 nM. Also, in experiment [2], the Emax worked out at 125% and the EC50 was found to be 6 nM.

With `CN(C)C(=O)c1ccc(-c2ccc(N3CCN(S(=O)(=O)c4c(Cl)cccc4C(F)(F)F)CC3)c(Cl)c2)cc1Cl` [Example 4-9, 3,3′-dichloro-4′-(4-{[2-chloro-6-(trifluoromethyl)phenyl]sulfonyl}piperazin-1-yl)-N,N-dimethylbiphenyl-4-carboxamide], the maximal response (Emax) in experiment [1] was 51%; in experiment [2] it was 96%. Further, the EC50 in experiment [1] worked out at 4130 nM; in experiment [2], 597 nM.

Turning to `CN(C)C(=O)c1ccc(-c2ccc(N3CC4CCC(C3)N4S(=O)(=O)c3c(Cl)cccc3Cl)cc2)cc1Cl` [Example 8-14, 3-chloro-4′-{8-[(2,6-dichlorophenyl)sulfonyl]-3,8-diazabicyclo[3.2.1]oct-3-yl}-N,N-dimethylbiphenyl-4-carboxamide], in experiment [1], the Emax came to 37% and the EC50 amounted to 3470 nM. In addition, in experiment [2], the Emax worked out at 118% and the EC50 was 76 nM.

In the case of `CN(C)C(=O)c1ccc(-c2cnc(N3CCN(C(=O)C4(c5ccccc5)CCC4)CC3)c(C#N)c2)cc1Cl` [Example 2-23, 2-chloro-4-(5-cyano-6-{4-[(1-phenylcyclobutyl)carbonyl]piperazin-1-yl}pyridin-3-yl)-N,N-dimethylbenzamide], the maximal response (Emax) in experiment [1] came to 47%; in experiment [2], 97%. Further, the EC50 turned out to be 1140 nM in experiment [1] and 43 nM in experiment [2].

As for `CN(C)C(=O)c1ccc(-c2cnc(N3CCN(C(=O)OC(C)(C)C)CC3)c(C#N)c2)cc1C(F)(F)F` [Example 8-9, tert-butyl 4-{3-cyano-5-[4-(dimethylcarbamoyl)-3-(trifluoromethyl)phenyl]pyridin-2-yl}piperazine-1-carboxylate], in experiment [1], the Emax is 30% and the EC50 is 10800 nM. Besides, in experiment [2], the Emax was found to be 73% and the EC50 turned out to be 1660 nM.

Take `CCC(C)S(=O)(=O)N1CCN(c2ncc(-c3ccc(C(=O)N(C)C)c(Cl)c3)cc2C#N)CC1` (centres unmarked) [Example 1-4, 2-chloro-4-(5-cyano-6-{4-[(1-methylpropyl)sulfonyl]piperazin-1-yl}pyridin-3-yl)-N,N-dimethylbenzamide]: in experiment [1], the Emax worked out at 44% and the EC50 was 49000 nM. Besides, in experiment [2], the Emax worked out at 81% and the EC50 came out at 279 nM.

As for `CN(C)C(=O)c1ccc(-c2cnc(N3CCN(C(=O)OCc4ccccc4C(F)(F)F)CC3)c(C#N)c2)cc1Cl` [Example 3-11, 2-(trifluoromethyl)benzyl 4-{5-[3-chloro-4-(dimethylcarbamoyl)phenyl]-3-cyanopyridin-2-yl}piperazine-1-carboxylate], the Emax came to 39% in experiment [1] and 96% in experiment [2]. Moreover, the EC50 in experiment [1] came out at 1200 nM; in experiment [2], 79 nM.

With `CN(CCn1cncn1)C(=O)c1ccc(-c2cnc(N3CCN(C(=O)C(C)(C)c4ccccc4)CC3)c(C#N)c2)cc1Cl` [Example 6-3, 2-chloro-4-{5-cyano-6-[4-(2-methyl-2-phenylpropanoyl)piperazin-1-yl]pyridin-3-yl}-N-methyl-N-[2-(1H-1,2,4-triazol-1-yl)ethyl]benzamide], in experiment [1], the maximal response (Emax) came to 33% and the EC50 is 2420 nM. In experiment [2], the Emax stood at 113% and the EC50 amounted to 30 nM.

Take `Cc1cccc(COC(=O)N2CCN(c3ncc(-c4ccc(C(=O)N(C)C)c(Cl)c4)cc3C#N)CC2)c1` [Example 3-5, 3-methylbenzyl 4-{5-[3-chloro-4-(dimethylcarbamoyl)phenyl]-3-cyanopyridin-2-yl}piperazine-1-carboxylate]: the figures for the Emax in experiment [1] and in experiment [2] were 57% and 97%, respectively. Also, the results for the EC50 in experiment [1] and in experiment [2] were 1340 nM and 56 nM, respectively.

With `CCc1cc(-c2cnc(N3CCN(C(=O)OC(C)(C)C)CC3)c(C#N)c2)ccc1C(=O)N(C)C` [Example 8-17, tert-butyl 4-{3-cyano-5-[4-(dimethylcarbamoyl)-3-ethylphenyl]pyridin-2-yl}piperazine-1-carboxylate], in experiment [1], the Emax turned out to be 41% and the EC50 is 7470 nM. In experiment [2], the Emax was 71% and the EC50 was found to be 424 nM.

As for `CC(C)(C)OC(=O)N1CCN(c2ncc(-c3ccc(C(=O)N4CCC4)c(Cl)c3)cc2C#N)CC1` [Example 5-4, tert-butyl 4-{5-[4-(azetidin-1-ylcarbonyl)-3-chlorophenyl]-3-cyanopyridin-2-yl}piperazine-1-carboxylate], in experiment [1], the Emax came to 39% and the EC50 was 21200 nM. In addition, in experiment [2], the Emax came to 71% and the EC50 is 1520 nM.

For the molecule `CC(C)(C)OC(=O)N1CCN(c2ncc(-c3ccc(C(N)=O)c(Cl)c3)cc2C#N)CC1` [Example 5-2, tert-butyl 4-[5-(4-carbamoyl-3-chlorophenyl)-3-cyanopyridin-2-yl]piperazine-1-carboxylate], in experiment [1], the Emax worked out at 66% and the EC50 turned out to be 2030 nM. In experiment [2], the Emax is 94% and the EC50 stood at 94 nM.

Consider `CN(C)C(=O)c1ccc(-c2cnc(N3CCN(C(=O)C4(c5ccccc5)CCCC4)CC3)c(C#N)c2)cc1Cl` [Example 2-26, 2-chloro-4-(5-cyano-6-{4-[(1-phenylcyclopentyl)carbonyl]piperazin-1-yl}pyridin-3-yl)-N,N-dimethylbenzamide], for which, in experiment [1], the Emax amounted to 25% and the EC50 is 1990 nM. In experiment [2], the Emax is 84% and the EC50 turned out to be 43 nM.

For the molecule `CN(C)C(=O)c1ccc(-c2cnc(N3CCN(S(=O)(=O)c4ccccc4C#N)CC3)c(C#N)c2)cc1Cl` [Example 1-9, 2-chloro-4-(5-cyano-6-{4-[(2-cyanophenyl)sulfonyl]piperazin-1-yl}pyridin-3-yl)-N,N-dimethylbenzamide], the Emax in experiment [1] stood at 46%; in experiment [2], 123%. Besides, the EC50 in experiment [1] amounted to 618 nM; in experiment [2] it was 22 nM.

For the molecule `CNC(=O)c1ccc(-c2cnc(N3CCN(C(=O)OC(C)(C)C)CC3)c(C#N)c2)cc1Cl` [Example 5-3, tert-butyl 4-{5-[3-chloro-4-(methylcarbamoyl)phenyl]-3-cyanopyridin-2-yl}piperazine-1-carboxylate], the Emax was determined as 76% in experiment [1] and 82% in experiment [2]. The EC50 in experiment [1] is 33700 nM; in experiment [2], 176 nM.

As to `CNC(=O)c1ccc(-c2cnc(N3CCN(C(=O)[C@](O)(c4ccccc4)C(F)(F)F)CC3)c(C#N)c2)cc1Cl` [Example 2-28, 2-chloro-4-(5-cyano-6-{4-[(2R)-3,3,3-trifluoro-2-hydroxy-2-phenylpropanoyl]piperazin-1-yl}pyridin-3-yl)-N-methylbenzamide], in experiment [1], the Emax was 30% and the EC50 was 1930 nM. In experiment [2], the Emax came to 98% and the EC50 was determined as 12 nM.

On to `CN(C)C(=O)c1ccc(-c2cnc(N3CCN(C(=O)C4(c5ccccc5)CC4)CC3)c(C#N)c2)cc1Cl` [Example 2-17, 2-chloro-4-(5-cyano-6-{4-[(1-phenylcyclopropyl)carbonyl]piperazin-1-yl}pyridin-3-yl)-N,N-dimethylbenzamide], for which, in experiment [1], the Emax was 27% and the EC50 was 4360 nM. Also, in experiment [2], the Emax was 95% and the EC50 amounted to 27 nM.

On to `CN(C)C(=O)c1ccc(-c2cnc(N3CCN(C(=O)OCc4cncs4)CC3)c(C#N)c2)cc1Cl` [Example 3-3, 1,3-thiazol-5-ylmethyl 4-{5-[3-chloro-4-(dimethylcarbamoyl)phenyl]-3-cyanopyridin-2-yl}piperazine-1-carboxylate], for which, in experiment [1], the Emax worked out at 42% and the EC50 worked out at 19800 nM. In experiment [2], the Emax amounted to 62% and the EC50 amounted to 217 nM.

In the case of `COc1ccc2nc(CCN(C)C(=O)c3ccc(-c4cnc(N5CCN(C(=O)OC(C)(C)C)CC5)c(C#N)c4)cc3Cl)[nH]c2c1` [Example 5-33, tert-butyl 4-[5-(3-chloro-4-{[2-(6-methoxy-1H-benzimidazol-2-yl)ethyl](methyl)carbamoyl}phenyl)-3-cyanopyridin-2-yl]piperazine-1-carboxylate], in experiment [1], the Emax came to 52% and the EC50 is 4830 nM. Moreover, in experiment [2], the Emax stood at 78% and the EC50 was determined as 703 nM.
